{"source": "patent US10806717B2", "about": "“Methods and compositions for improving cognitive function” (The Johns Hopkins University, priority 2013, dated 2020)", "key": {"[1]": {"conditions": "cited from earlier work"}, "[2]": {"test_system": "somatostatin in DG hilus", "assay": "Immunohistochemistry of SOM-immunoreactive hilar neurons after chronic levetiracetam", "type": "in vivo, rat", "conditions": "levetiracetam 10 mg/kg/day, osmotic minipumps, four weeks, aged-impaired rats; AI-LEV vs AI-VEH p<0.01"}, "[3]": {"test_system": "aged-impaired (AI) rats", "assay": "Radial Arm Maze task with one-hour delay, levetiracetam and/or valproate", "type": "in vivo, rat", "conditions": "for effective in reducing the number of errors: levetiracetam on its own"}, "[4]": {"biological_target": "synaptic vesicle protein 2A (SV2A) (Homo sapiens, UniProt Q7L0J3)", "sequence (Q7L0J3 whole entry, species assumed)": "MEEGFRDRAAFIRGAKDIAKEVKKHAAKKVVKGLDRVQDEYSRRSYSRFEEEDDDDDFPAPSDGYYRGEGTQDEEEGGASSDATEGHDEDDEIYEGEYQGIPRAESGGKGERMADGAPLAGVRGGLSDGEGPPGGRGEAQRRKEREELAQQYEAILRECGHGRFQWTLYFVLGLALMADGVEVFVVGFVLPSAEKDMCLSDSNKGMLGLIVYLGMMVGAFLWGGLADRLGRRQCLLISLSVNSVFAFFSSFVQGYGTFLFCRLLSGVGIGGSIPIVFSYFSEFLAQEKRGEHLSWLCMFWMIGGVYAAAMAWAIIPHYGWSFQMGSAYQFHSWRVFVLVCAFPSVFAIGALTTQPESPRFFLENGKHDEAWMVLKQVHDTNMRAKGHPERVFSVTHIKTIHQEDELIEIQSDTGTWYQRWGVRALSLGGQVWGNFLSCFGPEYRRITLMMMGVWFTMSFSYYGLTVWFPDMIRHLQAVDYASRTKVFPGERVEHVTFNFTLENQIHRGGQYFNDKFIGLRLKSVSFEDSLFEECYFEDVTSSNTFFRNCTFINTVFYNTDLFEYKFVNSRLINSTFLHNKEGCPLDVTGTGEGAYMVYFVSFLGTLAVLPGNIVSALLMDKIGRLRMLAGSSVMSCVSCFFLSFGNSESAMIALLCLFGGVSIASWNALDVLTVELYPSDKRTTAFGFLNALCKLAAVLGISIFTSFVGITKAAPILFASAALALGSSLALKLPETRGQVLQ", "conditions": "specific site in the CNS; cited from earlier work"}, "[5]": {"test_system": "Age-Impaired (AI) Long-Evans rats", "assay": "Morris Water Maze retention trial, levetiracetam i.p.", "type": "in vivo, rat", "experimental": "The MWM apparatus consists of a large, circular pool (diameter 1.53 m; height, 0.58 m) filled with water (27° C.) that is made opaque through the addition of non-toxic pigment or some other substance. In the typical “hidden platform” version of the test, rats are trained to find a camouflaged white escape platform (height, 34.5 cm) that is positioned in the center of one quadrant of the maze about 1.0 cm below the water surface. This platform can be retracted to the bottom of the tank or raised to its normal position from outside the maze during behavioral testing. The location of the platform remains constant from trial to trial. Because there are no local cues that mark the position of the platform, the rat's ability to locate it efficiently from any starting position at the perimeter of the pool depends on using information surrounding the maze. The maze is surrounded by black curtains to which white patterns are affixed to provide a configuration of spatial cues. A second platform (height 37.5 cm), with its surface painted black is elevated 2 cm above the water surface during cue training to control for factors unrelated to cognition. The behavior of a rat in the pool is recorded by a camera that is suspended 2.5 m above the center of the pool. The camera is connected to a video tracking system (HVS Image Advanced Tracker VP200) and a PC computer running HVS software developed by Richard Baker of HVS Image, Hampton, UK. Six Age-Impaired (AI) Long-Evans rats (as characterized above) were tested for their memory of new spatial information in the MWM, under different drug/control treatment conditions (vehicle control and two different dosage levels of levetiracetam). The MWM protocol was substantially the same as the one described in Example 1. Specifically for this study, a retention trial was performed after the training trials, as described below. AI rats were given six training trials per training day with a 60-sec inter-trial interval between each training trial for two consecutive days. […]"}, "[6]": {"test_system": "aMCI subjects", "assay": "fMRI activity of medial temporal lobe subregions during memory judgments", "type": "in vivo, human"}, "[7]": {"test_system": "aMCI subjects", "set-up": "species or system human", "conditions": "in vivo"}, "[8]": {"conditions": "levetiracetam 10 mg/kg/day i.p."}}, "note": "“Also recorded” adds a separate entry of the source."}
{"smiles": "CC[C@@H](C(N)=O)N1CCCC1=O", "note": "[levetiracetam, (2S)-2-(2-oxopyrrolidin-1-yl)butanamide]", "values": [{"measurement": "absorption", "setting": "[1]; after oral administration", "value": "rapidly and almost completely absorbed"}, {"measurement": "Plasma half-life expected in elderly", "setting": "[1]; elderly, due to decreased renal function", "value": "9 to 10", "unit": "h"}, {"measurement": "time of peak plasma concentrations", "setting": "[1]; following oral administration", "value": "about 1 hour"}, {"measurement": "Plasma half-life", "setting": "[1]; in vivo", "value": "approximately 7±1 hour"}, {"measurement": "time to steady state", "setting": "[1]; multiple twice-daily dosing", "value": 2, "unit": "days"}, {"measurement": "effect of food on bioavailability", "setting": "[1]; oral", "value": "not affected by food"}, {"measurement": "levels of somatostatin (SOM-immunoreactive hilar neurons) in DG hilus", "setting": "[2]", "value": "restores the levels of somatostatin; also recorded: restores sematostatin"}, {"measurement": "effective doses in the animal model", "setting": "[3]; AI rats, given acutely", "value": "5 to 10", "unit": "mg/kg"}, {"measurement": "performance of AI rats in the radial maze task", "setting": "[3]; levetiracetam 20 mg/kg", "value": "fails to improve the performance"}, {"measurement": "effective in reducing the number of errors", "setting": "[3]; 1.25 mg/kg or 2.5 mg/kg i.p.", "value": "not"}, {"measurement": "effective in reducing the number of errors", "setting": "[3]; 5-10 mg/kg i.p.", "value": "effective"}, {"measurement": "binding to SV2A", "setting": "[4]", "value": "binds"}, {"measurement": "memory performance (time in target quadrant) compared to vehicle", "setting": "[5]; levetiracetam 5 mg/kg/day i.p.", "value": "did not significantly improve"}, {"measurement": "memory performance (time in target quadrant) compared to vehicle", "setting": "[5]; [8]", "value": "significantly improved memory"}, {"measurement": "time spent in the target annulus", "setting": "[5]; [8]", "value": "effectivness of the 10 mg/kg/day levetiracetam treatment was also seen"}, {"measurement": "DG/CA3 hyperactivity during memory judgments", "setting": "[6]; levetiracetam 62.5 mg BID for two weeks, N=20", "value": "does not significantly reduce"}, {"measurement": "entorhinal cortex (EC) activity during memory judgments", "setting": "[6]; levetiracetam 125 mg twice a day for two weeks vs placebo", "value": "increases EC activity"}, {"measurement": "DG/CA3 activity during lure stimuli correctly identified as similar", "setting": "[6]; levetiracetam 125 mg twice a day for two weeks vs placebo, p=0.037", "value": "reduces DG/CA3 hyper-activity"}, {"measurement": "DG/CA3 hyperactivity during memory judgments", "setting": "[6]; levetiracetam 250 mg BID for two weeks, N=17", "value": "does not significantly reduce"}, {"measurement": "performance in Buschke Selective Reminding Test-Delayed Recall, Benton Visual Retention Test, Verbal Paired Associates Test-Recognition and -Delayed Recall", "setting": "[7]", "value": "fail to rescue performance"}]}
